{"source": "patent US20190358343A1", "about": "“ADOPTIVE TRANSFER OF CAR T CELLS WITH SURFACE-CONJUGATED DRUG-LOADED NANOPARTICLES AND USES THEREOF” (University of Southern California, priority 2017, published 2019)", "key": {"PBMCs": {"system": "PBMCs", "assay": "In vitro XTT assay", "type": "cell-based, human", "text": "(§1) Based on the procedure of nanoparticle-cell surface conjugation developed in Stephen et al (2010), we pioneered the utilization of CAR engineered human PBMCs as therapeutic cells that have nanoparticles conjugated to the surface. The nanoparticles encapsulate small molecule inhibitors of the A2a receptor, e.g., SCH 58261, which is highly hydrophobic and is generally unsuitable for systemic infusion. […] Therefore, SCH 58261 is a suitable drug to illustrate the advantage of this T cell-nanoparticle cargo system for the purposes of enhancing CAR T cell therapy by co-delivering therapeutic cells and adjuvant in the same unit. Compare with other compositions or systems to block the A2aR pathway, such as genetically engineering CAR-T cells with the CRISPR/Cas system or receptor siRNA knock down, a major advantage of presently disclosed composition and method is the ability of the drug to affect endogenous T cells and circulating CAR-T cells, as well as the carrier CAR-T cells themselves."}, "[1]": {"system": "tumor cells (SKOV3-CD19+)", "assay": "In vitro XTT assay", "type": "cell-based, human", "text": "as §1"}, "adenosine receptor A2A": {"molecular_target": "adenosine receptor A2A (Homo sapiens, UniProt P29274)", "sequence (P29274 whole entry, species assumed)": "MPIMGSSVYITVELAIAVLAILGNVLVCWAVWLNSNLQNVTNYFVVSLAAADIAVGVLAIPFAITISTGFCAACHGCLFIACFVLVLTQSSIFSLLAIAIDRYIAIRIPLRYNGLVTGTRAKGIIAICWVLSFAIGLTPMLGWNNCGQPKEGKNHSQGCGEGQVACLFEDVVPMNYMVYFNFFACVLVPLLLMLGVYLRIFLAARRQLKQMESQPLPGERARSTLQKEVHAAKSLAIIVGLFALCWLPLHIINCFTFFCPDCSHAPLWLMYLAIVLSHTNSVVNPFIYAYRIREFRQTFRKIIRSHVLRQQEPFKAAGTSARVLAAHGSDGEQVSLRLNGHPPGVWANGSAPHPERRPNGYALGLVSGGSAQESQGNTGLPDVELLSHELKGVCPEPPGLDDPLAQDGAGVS", "conditions": "cited from earlier work"}, "[2]": {"conditions": "cited from earlier work"}}, "note": "Like-named read-outs stand apart in the source and are kept apart here.", "data": [{"smiles": "Nc1nc2c(cnn2CCc2ccccc2)c2nc(-c3ccco3)nn12", "note": "[SCH-58261]", "values": [{"measurement": "cytotoxic effects", "setting": "PBMCs", "value": "does not have cytotoxic effects"}, {"measurement": "cytotoxic effects", "setting": "[1]", "value": "does not have cytotoxic effects"}, {"measurement": "cytotoxic effects", "setting": "[1]; listed as SCH", "value": "not directly affected"}, {"measurement": "selectivity for A2A over other adenosine receptors", "setting": "adenosine receptor A2A", "value": "more than 50 times"}, {"measurement": "solubility", "setting": "[2]", "value": "poor solubility"}]}]}
